Assay results from patent US20230346864A1, “Compositions and Methods for Joint Health” (Innophos, LLC, priority 2020, published 2023).

Columns and labels:
[1] = test system: potato 5-Lipoxygenase enzyme; assay: 5-LOX inhibition, Lipoxygenase Inhibitor Screening Assay Kit; format: biochemical; settings: at 100 μM
Procedure: Cashew testa extract was tested for 5-LOX inhibition using the Lipoxygenase Inhibitor Screening Assay Kit (available from Cayman Chemical, Ann Arbor, Michigan, US) and potato 5-Lipoxygenase enzyme (available from Cayman Chemical). This kit measures hydroperoxides produced in the lipoxygenation reaction.
The extracts were dissolved in methanol to final working concentrations. 5-LOX enzyme, Chromagen, and Linoleic Acid solutions were prepared immediately before use. Nordihydroguaiaretic acid (‘NDGA’) was used as a positive control. 5-LOX enzyme was added to the test samples and controls and incubated for five minutes at room temperature to allow for enzyme/inhibitor interaction. Linoleic acid substrate was added to the plate to initiate the reaction, and the plate was then shaken at room temperature for 10 minutes. Chromagen was added to visualize the hydroperoxides formed during the reaction and the plate was shaken at room temperature for another five minutes. The absorbance was then read at 492 nm. Percent inhibition of the extract concentration was calculated in comparison to the uninhibited control wells.
Cashew testa extract was tested for its 5-LOX inhibition activity at 10 different concentrations (0.7, 1.5, 3.0, 6.0, 11.9, 15.6, 31.2, 62.5, 125.0 and 250.0 μg/mL).

[2] = test system: collagen-induced arthritis (CIA) model in rats; assay: CIA rats: arthritis severity index; format: in vivo, Sprague—Dawley rats; settings: Methotrexate 0.5 mg/kg; vehicle CIA rats day 10
Excerpt: (§1) Collagen induced arthritis (CIA) in rats was developed and utilized to evaluate efficacy of orally administered cashew skin extract for three weeks post disease induction. The study included seven groups of rats (n=9 rats/group). The rats were purpose bred male Sprague—Dawley rats (7-8 weeks old, Charles River Laboratories Inc., Wilmington, MA). Animals were acclimated for two weeks to achieve the required body weight before being assigned randomly to their respective group. Rats (3/cage) were housed in a polypropylene cage and individually identified by numbers on their tail. Individual cages were identified with a cage card indicating project number, test article, dose level, group, and animal number. Harlan Soft cob bedding (Envigo Tekland 7087, Envigo, Indianapolis, Indiana) was used and changed at least twice/week. Animals were provided with fresh water and rodent chow diet (Teklad 2018, Envigo, Indianapolis, Indiana) ad libitum and housed in a temperature-controlled room (22.2° C.) on a 12-h light-dark cycle throughout the study.
(§2) The study rats were randomized and administered one of seven study articles as noted in Table 4— […]
(§3) Rats were evaluated for arthritis index before injection of a booster dose. […]
(§4) During the in-life period, arthritis severity index, paw thickness, ankle diameter and pain sensitivity were monitored. […]

[3] = test system: PIIANP; assay: CIA rats: serum PIIANP ELISA; format: in vivo, Rat; settings: Methotrexate 0.5 mg/kg
Excerpt: as §1, with “Harlan Soft cob bedding (Envigo Tekland 7087, Envigo, Indianapolis, Indiana) was used and changed at least twice/week. Animals were provided with fresh water and rodent chow diet (Teklad 2018, Envigo, Indianapolis, Indiana) ad libitum and housed in a temperature-controlled room (22.2° C.) on a 12-h light-dark cycle throughout the study.” left out
During the in-life period, arthritis severity index, paw thickness, ankle diameter and pain sensitivity were monitored. […] Urinary cartilage degradation marker (CTX-II), proinflammatory cytokines (TNF-α, IL-1β, and IL-6), cartilage synthesis marker (PIIANP) and matrix degrading proteases (MMP13) were measured.
ELISA Assay. The presence of PIIANP was measured using the Rat Procollagen Type IIA N-Prop (PIIANP) ELISA kit (MyBiosource, San Diego, California) as follows. […] After the addition of stop solution, the absorbance was read at 450 nm and the concentration of PIIANP calculated based on the absorbance readings of a PIIANP standard curve.

[4] = test system: IL-1β; assay: CIA rats: serum IL-1β ELISA; format: in vivo, Rat; settings: Methotrexate 0.5 mg/kg
Excerpt: as §1, with “Harlan Soft cob bedding (Envigo Tekland 7087, Envigo, Indianapolis, Indiana) was used and changed at least twice/week. Animals were provided with fresh water and rodent chow diet (Teklad 2018, Envigo, Indianapolis, Indiana) ad libitum and housed in a temperature-controlled room (22.2° C.) on a 12-h light-dark cycle throughout the study.” left out
During the in-life period, arthritis severity index, paw thickness, ankle diameter and pain sensitivity were monitored. […] Urinary cartilage degradation marker (CTX-II), proinflammatory cytokines (TNF-α, IL-1β, and IL-6), cartilage synthesis marker (PIIANP) and matrix degrading proteases (MMP13) were measured. […]
ELISA Assay. The presence of cytokines IL-1β/IL-6/TNF-α was measured using the Rat IL-1β/IL-6/TNF-α Quantikine ELISA kit (R&D Systems, Minneapolis, Minnesota) as follows. […] After the addition of stop solution, the absorbance was read at 450 nm and the concentration of IL-1β/IL-6/TNF-α calculated based on the absorbance readings of an IL-1β/IL-6/TNF-α standard curve.

[5] = test system: collagen-induced arthritis (CIA) model in rats; assay: CIA rats: ankle joint histopathology (modified Mankin system); format: in vivo, Sprague—Dawley rats; settings: Methotrexate 0.5 mg/kg
Excerpt: as §1
During the in-life period, arthritis severity index, paw thickness, ankle diameter and pain sensitivity were monitored. Urine and serum were collected at the end of study for biomarker analysis. Necropsy was carried out on day 22 for all the groups post priming. At necropsy, the ankle joint from each rat was collected for histopathology analysis. Urinary cartilage degradation marker (CTX-II), proinflammatory cytokines (TNF-α, IL-1β, and IL-6), cartilage synthesis marker (PIIANP) and matrix degrading proteases (MMP13) were measured.
Procedures and Evaluations. At necropsy, the ankle joint was carefully dissected out, fixed in 10% buffered formalin, and sent to Nationwide Histology (Veradale, WA, USA) for further histopathology analysis. The fixed specimens were then decalcified with Calci-Clear Rapid for one and a half days and embedded in paraffin. Standardized 5 μm serial sections were obtained from each rat and stained with hematoxylin and eosin (HE) and Safranin 0-fast green to enable evaluation of proteoglycan content. A modified Mankin system (Mankin et al., 1981) was used to score structural and cellular alterations of articular components as indications of disease progression and/or treatment efficacy. The histological analysis was conducted by a certified Pathologist at Nationwide Histology.

[6] = test system: collagen-induced arthritis (CIA) model in rats; assay: CIA rats: pain sensitivity (Randall—Selitto probe); format: in vivo, Sprague—Dawley rats; settings: Methotrexate 0.5 mg/kg; range over time points
Excerpt: as §1, §2, §3, §4

[7] = test system: CTX-II; assay: CIA rats: urine CTX-II ELISA; format: in vivo, Rat; settings: Methotrexate 0.5 mg/kg
Excerpt: as §1
During the in-life period, arthritis severity index, paw thickness, ankle diameter and pain sensitivity were monitored. Urine and serum were collected at the end of study for biomarker analysis. […] Urinary cartilage degradation marker (CTX-II), proinflammatory cytokines (TNF-α, IL-1β, and IL-6), cartilage synthesis marker (PIIANP) and matrix degrading proteases (MMP13) were measured.
Assay. Rat urine samples were diluted 1:3 and the presence of CTX-II was measured using the Rat CTX-II ELISA kit from Mybiosource as follows. […] After the addition of stop solution, the absorbance was read at 450 nm, multiplied by dilution factor, and the concentration of CTX-II calculated based on the absorbance readings of a CTX-II standard curve.
Creatine—CTX-II amount was normalized to the amount of Creatinine in the urine using a Creatinine Parameter Assay Kit (R&D Systems) as follows. […] Absorbance was read at 492 nm, and Creatinine amount in urine was calculated based on the absorbance readings of a Creatinine standard curve. […]

[8] = test system: collagen-induced arthritis (CIA) model in rats; assay: CIA rats: paw thickness / paw edema; format: in vivo, Sprague—Dawley rats; settings: day 7-day 21; Methotrexate 0.5 mg/kg; vs vehicle treated CIA
Excerpt: as §1, §2, §3, §4

[9] = test system: collagen-induced arthritis (CIA) model in rats; assay: CIA rats: ankle diameter; format: in vivo, Sprague—Dawley rats; settings: days 7 to 21; Methotrexate 0.5 mg/kg
Excerpt: as §1, §2, §3, §4

## CC(Cc1ccc(O)c(O)c1)C(C)Cc1ccc(O)c(O)c1 (centres unmarked) [NDGA, Nordihydroguaiaretic acid]
[1]
  5-LOX enzyme inhibition: 100%

## CN(Cc1cnc2nc(N)nc(N)c2n1)c1ccc(C(=O)N[C@@H](CCC(=O)O)C(=O)O)cc1 [MTX, Methotrexate]
[2]
  disease onset, day after priming: 14
[3]
  increase in serum PIIANP compared to CIA+vehicle: 41%
[4]
  reduction in serum level of IL-1β vs CIA rats treated with vehicle: 86.4%
[5]
  GAG loss, lower than vehicle: 50.7%
  bone erosion, lower than vehicle: 71.2%
  cartilage destruction, lower than vehicle: 50.7%
  inflammation, lower than vehicle: 55.8%
[6]
  pain tolerance vs Vehicle treated CIA: 14.1-67.1%
[7]; normalized with creatinine
  urine CTX-II, cartilage protection vs vehicle treated CIA rats: 27.2%
[7]; normalized with protein
  urine CTX-II, cartilage protection vs vehicle treated CIA rats: 22.9%
[7]; raw data
  urine CTX-II, cartilage protection vs vehicle treated CIA rats: up to 53.8%
[8]
  reduction in paw edema, area under the swelling curve: 90.2%
[9]
  reduction in ankle diameter, area under the curve: 89.1%
